Measured values as given in BindingDB's records for doi:10.1007/s00213-002-1073-7 (WestfÄLische Wilhelms-Universit&Auml, 2002).
pKi: −log10 of the molar value. Values joined by “and” are separate entries in the source; they are usually repeats but may differ in a detail not shown here. Identical values can stand only once.

Legend:
[1] = molecular target: 5-hydroxytryptamine receptor 6 (Homo sapiens, UniProt P50406)
[2] = molecular target: Kappa-type opioid receptor (Homo sapiens, UniProt P41145)
[3] = molecular target: 5-hydroxytryptamine receptor 1D (Homo sapiens, UniProt P28221)
[4] = molecular target: T1, 5-hydroxytryptamine receptor 3A (Homo sapiens, UniProt P46098)
T1 sequence (P46098 whole entry): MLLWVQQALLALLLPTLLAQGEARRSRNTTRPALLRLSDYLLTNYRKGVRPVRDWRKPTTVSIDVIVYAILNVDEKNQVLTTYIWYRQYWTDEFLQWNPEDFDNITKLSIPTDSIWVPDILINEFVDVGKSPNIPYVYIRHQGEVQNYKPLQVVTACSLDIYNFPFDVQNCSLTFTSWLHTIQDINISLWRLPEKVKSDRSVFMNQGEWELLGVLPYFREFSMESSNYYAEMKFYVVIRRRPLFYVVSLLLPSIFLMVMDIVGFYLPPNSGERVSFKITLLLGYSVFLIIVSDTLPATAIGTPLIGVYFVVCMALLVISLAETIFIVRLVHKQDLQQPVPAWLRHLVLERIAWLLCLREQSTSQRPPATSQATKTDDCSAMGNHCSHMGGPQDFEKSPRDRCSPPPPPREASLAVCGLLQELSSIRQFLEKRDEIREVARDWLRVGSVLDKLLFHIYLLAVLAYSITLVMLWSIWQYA

D(1A) dopamine receptor = D(1A) dopamine receptor (Homo sapiens, UniProt P21728)
[5] = molecular target: T2, Alpha-2C adrenergic receptor (Homo sapiens, UniProt P18825)
T2 sequence (P18825 whole entry): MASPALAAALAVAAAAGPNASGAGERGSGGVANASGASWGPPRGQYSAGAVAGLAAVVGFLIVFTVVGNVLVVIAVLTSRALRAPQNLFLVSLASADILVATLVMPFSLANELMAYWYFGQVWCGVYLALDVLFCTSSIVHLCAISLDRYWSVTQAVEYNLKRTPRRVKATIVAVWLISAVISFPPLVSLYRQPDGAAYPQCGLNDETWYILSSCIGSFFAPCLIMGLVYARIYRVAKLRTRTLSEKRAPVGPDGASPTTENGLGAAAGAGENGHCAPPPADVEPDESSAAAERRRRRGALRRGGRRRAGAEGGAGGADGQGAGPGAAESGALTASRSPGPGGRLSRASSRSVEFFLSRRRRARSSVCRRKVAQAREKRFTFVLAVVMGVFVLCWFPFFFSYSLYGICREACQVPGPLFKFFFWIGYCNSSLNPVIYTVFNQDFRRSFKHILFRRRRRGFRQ

[6] = molecular target: T3, Muscarinic acetylcholine receptor M2 (Homo sapiens, UniProt P08172)
T3 sequence (P08172 whole entry): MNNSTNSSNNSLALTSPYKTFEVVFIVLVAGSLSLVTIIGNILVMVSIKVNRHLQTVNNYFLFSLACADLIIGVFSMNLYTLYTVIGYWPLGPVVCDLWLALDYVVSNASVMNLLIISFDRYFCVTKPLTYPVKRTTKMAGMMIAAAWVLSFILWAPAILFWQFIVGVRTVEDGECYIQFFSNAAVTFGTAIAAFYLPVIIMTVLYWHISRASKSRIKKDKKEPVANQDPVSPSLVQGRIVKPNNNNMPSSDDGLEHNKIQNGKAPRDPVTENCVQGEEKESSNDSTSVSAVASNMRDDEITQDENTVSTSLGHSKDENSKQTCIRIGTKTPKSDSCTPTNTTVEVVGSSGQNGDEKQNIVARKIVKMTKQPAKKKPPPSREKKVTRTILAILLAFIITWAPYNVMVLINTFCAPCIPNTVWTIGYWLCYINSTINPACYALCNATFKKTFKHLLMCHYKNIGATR

[7] = molecular target: T4, Muscarinic acetylcholine receptor M1 (Homo sapiens, UniProt P11229)
T4 sequence (P11229 whole entry): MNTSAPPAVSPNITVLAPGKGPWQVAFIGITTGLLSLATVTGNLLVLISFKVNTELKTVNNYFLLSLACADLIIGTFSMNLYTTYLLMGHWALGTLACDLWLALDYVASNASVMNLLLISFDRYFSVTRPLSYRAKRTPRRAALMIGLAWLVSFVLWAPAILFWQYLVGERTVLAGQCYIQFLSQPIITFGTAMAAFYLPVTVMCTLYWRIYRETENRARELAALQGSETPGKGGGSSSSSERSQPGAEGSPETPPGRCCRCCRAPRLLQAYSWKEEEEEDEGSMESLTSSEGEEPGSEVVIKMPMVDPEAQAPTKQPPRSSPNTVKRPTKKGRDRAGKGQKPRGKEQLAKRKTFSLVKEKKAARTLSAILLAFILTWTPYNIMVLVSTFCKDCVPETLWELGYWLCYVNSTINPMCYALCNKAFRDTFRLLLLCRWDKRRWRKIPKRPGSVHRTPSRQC

[8] = molecular target: Sodium-dependent dopamine transporter (Bos taurus, UniProt P27922)
[9] = molecular target: T5, Muscarinic acetylcholine receptor M5 (Homo sapiens, UniProt P08912)
T5 sequence (P08912 whole entry): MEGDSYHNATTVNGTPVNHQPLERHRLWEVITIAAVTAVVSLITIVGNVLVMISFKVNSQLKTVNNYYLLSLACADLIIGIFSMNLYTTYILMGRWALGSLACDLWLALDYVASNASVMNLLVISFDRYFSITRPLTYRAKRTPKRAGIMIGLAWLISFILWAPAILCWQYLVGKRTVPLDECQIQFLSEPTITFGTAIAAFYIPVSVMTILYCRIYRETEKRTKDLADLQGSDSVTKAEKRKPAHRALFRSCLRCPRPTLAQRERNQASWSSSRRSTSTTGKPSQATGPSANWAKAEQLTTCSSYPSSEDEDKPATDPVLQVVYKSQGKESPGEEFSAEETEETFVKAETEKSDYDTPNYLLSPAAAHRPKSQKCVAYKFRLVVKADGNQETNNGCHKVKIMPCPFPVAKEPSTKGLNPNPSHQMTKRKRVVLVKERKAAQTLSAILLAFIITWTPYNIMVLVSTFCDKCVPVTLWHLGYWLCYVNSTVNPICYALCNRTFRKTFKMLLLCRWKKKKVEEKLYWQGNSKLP

[10] = molecular target: Beta-2 adrenergic receptor (Rattus norvegicus, UniProt P10608)
Beta-2 adrenergic receptor, sequence (P10608 whole entry): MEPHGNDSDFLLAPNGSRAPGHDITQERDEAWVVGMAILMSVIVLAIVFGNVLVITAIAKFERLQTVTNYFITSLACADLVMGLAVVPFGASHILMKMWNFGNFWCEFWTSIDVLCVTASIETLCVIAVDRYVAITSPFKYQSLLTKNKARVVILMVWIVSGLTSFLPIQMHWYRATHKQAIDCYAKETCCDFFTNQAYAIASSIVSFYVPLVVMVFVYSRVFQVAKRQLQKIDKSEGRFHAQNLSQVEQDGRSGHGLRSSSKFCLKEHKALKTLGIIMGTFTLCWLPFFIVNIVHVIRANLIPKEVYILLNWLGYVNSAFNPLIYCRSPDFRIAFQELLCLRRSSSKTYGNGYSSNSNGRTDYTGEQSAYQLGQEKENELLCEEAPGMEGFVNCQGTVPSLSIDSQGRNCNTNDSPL

Sodium-dependent dopamine transporter, sequence (P27922 whole entry): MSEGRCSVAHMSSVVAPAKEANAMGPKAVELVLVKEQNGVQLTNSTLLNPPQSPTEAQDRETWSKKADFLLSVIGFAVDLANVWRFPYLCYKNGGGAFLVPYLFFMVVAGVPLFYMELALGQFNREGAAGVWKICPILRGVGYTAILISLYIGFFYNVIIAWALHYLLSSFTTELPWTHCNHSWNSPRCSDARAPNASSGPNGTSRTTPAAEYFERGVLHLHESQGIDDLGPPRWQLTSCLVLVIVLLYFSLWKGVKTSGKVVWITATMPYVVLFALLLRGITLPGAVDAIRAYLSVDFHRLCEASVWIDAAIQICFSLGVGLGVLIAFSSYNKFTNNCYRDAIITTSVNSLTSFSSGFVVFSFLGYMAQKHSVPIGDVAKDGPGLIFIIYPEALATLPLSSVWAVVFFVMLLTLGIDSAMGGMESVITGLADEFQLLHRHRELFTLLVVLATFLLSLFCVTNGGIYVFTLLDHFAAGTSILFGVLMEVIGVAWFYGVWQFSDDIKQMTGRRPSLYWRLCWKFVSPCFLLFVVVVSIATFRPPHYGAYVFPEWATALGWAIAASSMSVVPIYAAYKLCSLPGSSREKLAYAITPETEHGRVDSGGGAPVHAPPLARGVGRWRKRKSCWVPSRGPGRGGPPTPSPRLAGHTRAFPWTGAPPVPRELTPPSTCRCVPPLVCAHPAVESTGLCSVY
D(1A) dopamine receptor, sequence (P21728 whole entry): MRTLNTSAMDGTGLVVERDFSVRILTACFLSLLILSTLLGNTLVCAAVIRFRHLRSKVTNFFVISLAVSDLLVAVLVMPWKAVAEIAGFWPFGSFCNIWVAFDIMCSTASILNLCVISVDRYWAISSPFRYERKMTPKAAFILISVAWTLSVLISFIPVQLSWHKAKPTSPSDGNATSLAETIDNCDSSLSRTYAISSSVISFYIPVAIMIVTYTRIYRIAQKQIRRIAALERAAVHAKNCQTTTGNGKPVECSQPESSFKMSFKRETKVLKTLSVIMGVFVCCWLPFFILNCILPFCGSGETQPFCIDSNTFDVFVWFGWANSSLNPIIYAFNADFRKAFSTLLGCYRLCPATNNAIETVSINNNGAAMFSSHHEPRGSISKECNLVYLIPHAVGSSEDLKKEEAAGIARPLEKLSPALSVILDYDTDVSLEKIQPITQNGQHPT
Kappa-type opioid receptor, sequence (P41145 whole entry): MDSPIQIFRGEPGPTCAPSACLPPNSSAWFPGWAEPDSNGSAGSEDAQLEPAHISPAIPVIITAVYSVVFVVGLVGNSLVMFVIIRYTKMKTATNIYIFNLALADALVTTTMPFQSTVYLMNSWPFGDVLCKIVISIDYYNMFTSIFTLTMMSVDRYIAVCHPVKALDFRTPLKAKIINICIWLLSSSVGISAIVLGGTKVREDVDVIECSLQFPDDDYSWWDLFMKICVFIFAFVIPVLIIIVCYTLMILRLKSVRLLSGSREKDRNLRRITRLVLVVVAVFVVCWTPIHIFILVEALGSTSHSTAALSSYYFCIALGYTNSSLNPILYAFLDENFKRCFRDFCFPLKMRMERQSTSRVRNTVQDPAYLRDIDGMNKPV
5-hydroxytryptamine receptor 6, sequence (P50406 whole entry): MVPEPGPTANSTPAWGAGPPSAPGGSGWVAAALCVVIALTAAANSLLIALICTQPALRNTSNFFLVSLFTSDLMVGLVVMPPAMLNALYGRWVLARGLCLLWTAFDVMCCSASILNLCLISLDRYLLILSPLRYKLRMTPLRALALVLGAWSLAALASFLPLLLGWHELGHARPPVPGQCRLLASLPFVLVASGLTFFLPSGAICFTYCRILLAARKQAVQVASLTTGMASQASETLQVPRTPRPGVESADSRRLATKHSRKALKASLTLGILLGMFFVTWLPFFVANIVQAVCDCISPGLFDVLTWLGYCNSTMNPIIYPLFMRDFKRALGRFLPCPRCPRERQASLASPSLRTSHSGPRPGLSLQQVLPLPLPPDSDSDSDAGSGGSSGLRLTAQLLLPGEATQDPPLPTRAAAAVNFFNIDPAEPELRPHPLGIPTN
5-hydroxytryptamine receptor 1D, sequence (P28221 whole entry): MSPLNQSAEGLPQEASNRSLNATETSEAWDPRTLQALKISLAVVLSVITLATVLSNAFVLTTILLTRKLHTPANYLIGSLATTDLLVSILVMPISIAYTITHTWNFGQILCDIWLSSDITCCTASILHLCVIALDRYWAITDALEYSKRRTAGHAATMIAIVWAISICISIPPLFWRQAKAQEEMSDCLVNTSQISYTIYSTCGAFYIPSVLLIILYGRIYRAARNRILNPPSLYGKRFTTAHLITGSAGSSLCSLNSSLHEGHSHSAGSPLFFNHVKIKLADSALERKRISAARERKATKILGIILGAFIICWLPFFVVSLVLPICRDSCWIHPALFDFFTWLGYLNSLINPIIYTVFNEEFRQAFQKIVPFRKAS

Row | SMILES | pKi [1] | pKi [2] | pKi [3] | pKi [4] | pKi (D(1A) dopamine receptor) | pKi [5] | pKi [6] | pKi [7] | pKi [8] | pKi [9] | pKi [10]
1 | O=c1cc(O)cc2oc(-c3ccc(O)c(-c4c(O)cc(O)c5c(=O)cc(-c6ccc(O)cc6)oc45)c3)cc(O)c1-2 | < 5.00 | < 5.00 | < 5.00 | < 5.00 | < 5.00 | < 5.00 | < 5.00 | < 5.00 | 6.06 | < 5.00 | < 5.00
2 | CC(C)=CCC[C@]1(C)[C@@H](CC=C(C)C)C[C@]2(CC=C(C)C)C(=O)C(CC=C(C)C)C(=O)[C@]1(C(=O)C(C)C)C2=O (stereo partly specified) | < 5.00 | < 5.00 | < 5.00 | < 5.00 | 6.22 | < 5.00 | < 5.00 | < 5.00 | < 5.00 | < 5.00 | < 5.00
3 | O=c1cc(O)cc2oc(-c3ccc(O)c(O)c3)c(OC3OC(CO)C(O)C(O)C3O)c(O)c1-2 (stereo unspecified) [NSC_5318390] | < 5.00 | < 5.00 | < 5.00 | < 5.00 | < 5.00 | < 5.00 and 5.39 | < 5.00 | < 5.00 | < 5.00 | < 5.00 | < 5.00
4 | C[C@@H]1O[C@@H](OC[C@H]2O[C@@H](Oc3c(-c4ccc(O)c(O)c4)oc4cc(O)cc(O)c4c3=O)[C@H](O)[C@@H](O)[C@@H]2O)[C@H](O)[C@H](O)[C@H]1O [3-Rhamnoglucosylquercetin] | < 5.00 | < 5.00 | < 5.00 | < 5.00 | < 5.00 | 5.02 | < 5.00 | < 5.00 | < 5.00 | 7.45 | < 5.00
5 | O=c1c(O)c(-c2ccc(O)c(O)c2)oc2cc(O)cc(O)c12 [2-(3,4-dihydroxyphenyl)-3,5,7-trihydroxy-chromone;hydrate] | < 5.00 | < 5.00 | < 5.00 | < 5.00 | < 5.00 | < 5.00 | < 5.00 | < 5.00 | < 5.00 | < 5.00 | < 5.00
6 | C[C@@H]1O[C@@H](Oc2c(-c3ccc(O)c(O)c3)oc3cc(O)cc(=O)c-3c2O)[C@H](O)[C@H](O)[C@H]1O | < 5.00 | < 5.00 | < 5.00 | < 5.00 | < 5.00 | < 5.00 | < 5.00 | < 5.00 | < 5.00 | < 5.00 | < 5.00
